Reference: US20230097753A1, “ALPHA-HYDROXYLATED FATTY-ACID METABOLITES, MEDICAL USES AND USE AS BIOMARKERS” (UNIVERSITAT DE LES ILLES BALEARS, priority 2020, published 2023)

Key:
HEK293T cells = assay: Metabolic conversion and uptake of 2-hydroxylated fatty acids in HEK293T cell cultures; format: in vitro ADME, human; conditions: HEK293T; for Formation of the metabolite from its 2-hydroxylated prodrug in the presence of oxythiamine: prodrug 100 μM, 24 h, 10 mM oxythiamine
Experimental: To describe the metabolic conversion of DHA-H to HPA(C21:5 ω-3), as well as the conversion of LA-H to HDA (C17:2 ω-6), ALA-H to HTA ω-3 (C17:3 ω-3), GLA-H to HTA ω-6 (C17:3 ω-6), ARA-H to NTA (C19:4 ω-6), EPA-H to NPA (C19:5 ω-3), HEK293T (Human Embryonic Kidney Cells 293T) cell cultures were employed, which is an embryonic, non-tumoral cell line, widely used in human metabolism studies under physiological conditions.
HEK293T cells were cultured in Dulbecco's Modified Eagle's Medium (DMEM; Dubelcco's Modified Eagle's Medium, Biowest, France), supplemented with 10% FBS (Fetal Bovine Serum; Gibco, Thermo-Fisher), 2 mM L-Gln, 25 mM D(+)-glucose, 1 mM sodium pyruvate, and penicillin/streptomycin. Mouse neuroblastoma N2a cells were maintained in a 1:1 (v:v) mixture of DMEM and Opti-Mem (Gibco, Thermo-Fisher), supplemented with 5% FBS and penicillin/streptomycin. Both cell lines were incubated in an atmosphere of 5% CO2 at 37° C.
HEK293T cells were incubated with DHA-H and DHA at 10, 30 and 100 μM for 24 hours, and at 30 μM for 6, 48 and 72 hours. These cells were also incubated with LA-H, ALA-H, GLA-H, ARA-H and EPA-H at 100 μM for 24 hours. HEK293T cells were also incubated with oxythiamine in the presence of DHA-H under the same conditions, at final oxythiamine concentrations of 1 and 10 mM. The HEK293T cells were separated from the plates by pipettes with cold phosphate buffer saline solution (PBS). Cells were recovered by centrifugation (1000 xg, 10 min at 4° C.) and washed twice with cold PBS before being frozen at −80° C. To analyze DHA-H and DHA levels in the cell culture medium, 90 mm diameter plates were filled with 11 mL of complete cell culture medium containing 30 μM DHA-H or DHA in the presence or absence of attached HEK293T cells (5.10^5 cells/plate). The plates were incubated as described above and 1 ml aliquots of the plates were collected at 0, 6, 24, 48 and 72 hours. Aliquots of the cell culture medium were immediately centrifuged at 1000×g for 10 min at 4° C. to remove any cell suspension and the cell-free aliquots were stored at -20° C.
The cell lysates were subjected to ultrasound pulses (4 cycles, 10 s/cycle, 10 W) before lipid extraction. For brain analysis, the tissue of each animal was homogenized in cold PBS at 1:10 (p:v) in the presence of protease inhibitors (Roche), using a blade homogenizer (Polytron PT3100). Homogenates were ultrasounded, aliquots were made and stored at −80 ° C. Only one aliquot of each sample, containing about 8 mg protein/aliquot, was subjected to lipid extraction. Protein content before lipid extraction was determined by a modified Lowry method (Bio-rad DC Protein Assay).
Margaric acid (C17:0) was added to the samples subjected to lipid extraction as an internal standard and the lipids were extracted with chloroform:methanol (Eggers and Schwudke, 2016). Briefly, 0.75 volumes of the aqueous phase (which already contained the biological sample) were mixed with 2 volumes of chloroform and 1 volume of methanol. This mixture was vortexed for 1 minute and centrifuged at 1000×g for 10 minutes. The lower organic phase was collected and washed with 1 ml of PBS:methanol (1:1,v:v), and the resulting organic phase was dried under argon flow. The film containing the extracted lipids was transmethylated by incubation of the lipid mixture for 90 minutes at 100° C. in 3 ml of methanol:acetyl chloride (10:1, v:v), under an argon atmosphere (Christie, 1993). The resulting fatty acid methyl esters (FAMEs) were extracted with hexane, adding 3 ml of H2O and 1 ml of hexane to the transmethylation reaction, and vortexing the mixture thoroughly. After centrifugation at room temperature (1000×g for 10 min), the upper phase containing the FAMEs was collected and the remaining volume was washed twice with 1 ml of hexane.

A549 = assay: IC50 in tumor cell cultures (cell survival, XTT / trypan blue); format: cell-based; conditions: A549 human lung adenocarcinoma cell line
Experimental: (§1) Cell survival was analyzed in a Barker chamber using trypan blue vital exclusion staining (Scharlab) or by cell proliferation kit II (Roche). Briefly, the cells were seeded in 96-well plates at a density of 3 x 10^3 cells per well 24 h prior to treatment, and then cultured in the presence or absence of compounds of interest at the concentrations and for the times indicated in the figures. After different times, plaque viable cells were determined by the addition of XTT according to the manufacturers instructions. Cells were incubated at 37° C. in 5% CO2 until a constant color was developed and absorbance was recorded at 495 nm using a microplate reader with a reference wavelength of 650 nm (FLUOstar Omega, BMG LABTECH, Germany).
(§2) The anti-tumor activity of the different metabolites described in FIGS. 8 and 9 was determined by direct treatment with these molecules (HDA or C17:2 ω-6, HTA ω-3 or C17:3 ω-3, HTA ω-6 or C17:3 ω-6, NTA or C19:4 ω-6, NPA or C19:5 ω-3, and HPA or C21:5 ω-3) in tumor cell cultures, on which the IC50 value for each of these compounds was determined (Inhibitory Concentration 50: concentration of study compound that induces death of 50% of the tumor cell population).

MIA-PaCa 2 = assay: as above; format: cell-based; conditions: Homo sapiens; MIA-PaCa 2 pancreatic cancer cell line
Experimental: as §1, §2

SF-295 glioma cells = assay: Cell viability by violet crystal staining, 72 hours; format: cell-based, human; conditions: SF-295, 72 hours
Experimental: FIG. 14. Effect of 2OHOA sodium salt, OA and C17:1n-9 sodium salt on cell viability and proliferation of glioma cells. […] Viability was determined by violet crystal staining.
(§3) In order to evaluate the antiproliferative effect of C17:1n-9, its IC50, which corresponds to the amount of a compound needed to reduce cell viability in vitro by 50%, as well as its effect on the regulation of proteins involved in the mechanism of action of 2OHOA, were determined. […] Upon completion of treatment, IC50 was determined by violet crystal staining technique. […] The IC50 of 2OHOA was 1000 μM for non-tumor cells, MRC-5 and astrocytes.

[1] = tested on: MRC-5 (human fibroblasts); assay: as above; format: cell-based; conditions: MRC-5 non-tumor cells
Experimental: FIG. 15. Effect of 2OHOA sodium salt, C17:1n-9 sodium salt, and OA on cell viability and proliferation of non-tumor cells. Non-tumor cell viability curves (A1-A3) MRC-5 (human fibroblasts); and (B1-B3) mouse astrocytes treated with increasing doses of 2OHOA sodium salt (0-1000 μM) (A1 and B1); OA (0-300 μM) (A2 and B2); and C17:1n-9 sodium salt (0-300 μM) (A3 and B3) for 72 hours. Viability was determined by violet crystal staining.
as §3

SF-295 = assay: Cell survival by trypan blue vital exclusion staining, 2OHOA and oxythiamine; format: cell-based, human; conditions: SF-295, 2 mM oxythiamine, 72 hours
Experimental: FIG. 18. Effect of metabolite C17:1n-9 on the action of 2OHOA. […] Cell viability was determined by vital exclusion staining with trypan blue.
(§4) To study whether the metabolite C17:1n-9 can participate in the action of 2OHOA, the effect of pre-incubation with oxythiamine on cell survival and 2OHOA-regulated proteins was studied. To do this, the cell survival of different glioma and non-tumor cell lines treated with 2OHOA (400 μM, 72 hours) and pre-incubated or not with 2 mM […] (90 minutes) was analyzed by counting the cells with the vital exclusion stain with trypan blue. In addition, Western-blot 2OHOA-modulated proteins were studied. In glioma cells, a significant decrease in cell survival was observed after incubation with 2 mM oxythiamine for 72 hours.

[2] = tested on: BIP, CHOP, cJun phosphorylation, phosphorylation of Akt, cyclin D3; assay: Western Blot of proliferation and death markers in glioma and non-tumor cell lines; format: cell-based; conditions: glioma cells, oxythiamine 2 mM, 72h
Experimental: FIG. 16. Analysis of the effect of different fatty acids on markers of proliferation and death in different cell lines.
as §4

Formation of the metabolite from its 2-hydroxylated prodrug in the presence of oxythiamine (HEK293T cells) | Compound | IC50 (A549) | IC50 (MIA-PaCa 2) | also measured
– | CC/C=C\C/C=C\C/C=C\C/C=C\C/C=C\C/C=C\CCC(=O)O [DHA, docosahexaenoic acid, reference compound] | – | – | Levels in the culture medium in the presence of cell culture (uptake) (HEK293T cells; 30 μM, up to 72 h): decreased significantly at 48 and 72 h
inhibited | CCCCC/C=C\C/C=C\CCCCCCC(=O)O [HDA, (8Z,11Z)-heptadeca-8,11-dienoic acid] | 159 ± 10 µM | 234 ± 18 µM | –
inhibited | CC/C=C\C/C=C\C/C=C\CCCCCCC(=O)O [HTA n-3, (8Z,11Z,14Z)-heptadeca-8,11,14-trienoic acid] | 166 ± 30 µM | 216 ± 24 µM | –
inhibited | CCCCC/C=C\C/C=C\C/C=C\CCCC(=O)O [HTA n-6, (5Z,8Z,11Z)-heptadeca-5,8,11-trienoic acid] | 212 ± 48 µM | 95 ± 31 µM | –
inhibited | CC/C=C\C/C=C\C/C=C\C/C=C\C/C=C\CCC(=O)O [NPA, (4Z,7Z,10Z,13Z,16Z)-nonadeca-4,7,10,13,16-pentaenoic acid] | 143 ± 39 µM | 91 ± 18 µM | –
inhibited | CCCCC/C=C\C/C=C\C/C=C\C/C=C\CCC(=O)O [NTA, (4Z,7Z,10Z,13Z)-nonadeca-4,7,10,13-tetraenoic acid] | 216 ± 3 µM | 62 ± 2 µM | –
– | CCCCCCCC/C=C\CCCCCCCC(=O)[O-].[Na+] [OA, reference compound] | – | – | IC50 (SF-295 glioma cells): 256 ± 5.79 µM; IC50 [1]: 236 ± 6.73 µM
– | Cc1ncc(C[n+]2csc(CCO)c2C)c(=O)[nH]1 [oxythiamine, reference compound] | – | – | Cell death (SF-295): 17.35±0.63%; Effect on signaling proteins (Western Blot) [2]: in the same sense as 2OHOA, although milder; Inhibition of the increase in HPA levels from DHA-H (HEK293T cells; oxythiamine 1 mM): partial inhibition; Inhibition of the increase in HPA levels from DHA-H (HEK293T cells; oxythiamine 10 mM): almost total
